Assay results: patent publication US10548895B2, “Ligands that target Plasmodium sporozoite binding sites on CD81 and therapeutic methods using them” (American University In Cairo (AUC), priority 2014, dated 2020)
Entries after “also recorded” stand apart in the source; their conditions may differ. Where two headings read alike, the source gives them in different places.

Assays:
[1] = target: T1, native CD81 on Raji cells (Homo sapiens, UniProt P60033); experiment: Antibody neutralizing assay: inhibition of JS-81 anti-CD81 antibody binding on Raji cells (FACS); format: cell-based; conditions: for inhibition at 50 µM / inhibition at 100 µM / inhibition at 400 µM: read-out: Inhibition of JS-81 Binding (%)
T1 construct: endogenous in cells; host or cells: Raji cells (human B cell line)
T1 sequence (P60033 1-236): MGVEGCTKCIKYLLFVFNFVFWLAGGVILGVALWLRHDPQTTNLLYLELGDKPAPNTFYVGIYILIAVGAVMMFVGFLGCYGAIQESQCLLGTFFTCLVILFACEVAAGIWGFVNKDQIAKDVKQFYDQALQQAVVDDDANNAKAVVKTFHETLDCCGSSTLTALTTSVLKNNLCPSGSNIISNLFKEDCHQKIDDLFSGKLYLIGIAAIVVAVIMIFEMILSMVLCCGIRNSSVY
Experimental: For antibody neutralization assay Raji cells were used, a human B cell line that expressed high amounts of CD81 on the surface (data not shown), Cells were grown in RPMI medium (10% FCS, 1% penicillin/streptomycin, 1% L-glutamine, 1% non-essential amino acids, 1% sodium pyruvate, pH 7.4, at 37° C. with 5% CO2). 2×10^5 cells were incubated with or without different concentrations (50 μM, 100 μM, 400 μM and 1 mM) of indicated inhibitor for 20 min at room temperature, subsequently 1 ul (16 ng/μl) of FITC-labeled anti CD81 antibody (BD Pharmingen, 551108) was added to the cells and incubated for 20 min (antibody titration was performed to obtain a working dilution range, data not shown). Cells were washed and analyzed by FACS (BD FACSCalibur, software: Cell Quest Pro). Mean Fluorescence Intensity MFI was calculated using Flowjo software (TreesStar, www.flowjo.com).

CD81-LEL = target: T2, CD81-LEL (Homo sapiens, UniProt P60033); experiment: Surface plasmon resonance binding of ligands to immobilized CD81-LEL; conditions: for Binding (change in response units): 3 min association; for Dissociation 1 (change in response units) / Dissociation 2 (change in response units): dissociation interval
T2 construct: A recombinant form of the CD81-LEL protein with a GST tag; gift of Dr. Shoshana Levy, Stanford University
T2 sequence (P60033 113-201 limits assumed): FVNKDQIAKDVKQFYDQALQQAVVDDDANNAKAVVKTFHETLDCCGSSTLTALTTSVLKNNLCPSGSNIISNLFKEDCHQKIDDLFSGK
Experimental: SPR analysis was performed using a Biacore T200 workstation (GE Healthcare, NJ, USA). A recombinant form of the CD81-LEL protein with a GST tag (generously provided by Dr. Shoshana Levy, Stanford University) was used to confirm, using an established experimental technique, the binding of several ligands to the protein. Briefly, 10 μM CD81-LEL-GST diluted into 10 mM Na-Acetate buffer pH 4.5 was immobilized for 15 min at a flow speed of 5 μl/min onto a CM5 sensor chip using amine-coupling (EDC-NHS), Approximately 20,000 RU of protein were immobilized on the chip. The ligands were prepared as 600 μM solutions in PBS-0.05% Tween-80 (the running buffer) and they were introduced to the protein using a pre-programmed 3 minute association and 1 minute dissociation interval.
SPR analysis was performed using a Biacore T100 workstation (GE Healthcare, NJ, USA). […] Approximately 20,000 RU of protein were immobilized on the chip. The ligands were prepared as 200 uM solutions in PBS-1% DMSO (the running buffer) and they were introduced to the protein using a pre-programmed 3 min association and 1 min dissociation interval.

Plasmodium yoelii [2] = experiment: Sporozoite development assay, P. yoelii in HepG2-CD81 cells; format: cell-based
Experimental: (§1) Anopheles stephensi mosquitoes were fed on mice infected with Plasmodium yoelii 17XNL parasites. On day 14 post bloodmeal, salivary glands were harvested, homogenized, sporozoite number was determined using a hemocytometer and the indicated number of sporozoites was added to cell monolayers, Plasmodium falciparum sporozoites were generated by membrane feeding An. stephensi mosquitoes using gametocyte cultures generated in vitro.
(§2) HepG2-CD81 (14) cells were maintained in DMEM supplemented with 10% fetal calf serum and 1 mM glutamine (DMEM/FCS), mAb 2E6 was used for development assays and is directed against Plasmodium Hsp 70 (15) and mAb 2A10 is directed against the repeat region of P. falciparum CSP and was used for invasion assays.
(§3) 5×10^5 HepG2-CD81 cells were plated on collagen coated Lab-Tek wells and allowed to adhere overnight. The following day, cells were preincubated with 400 uM of compound for 30 minutes at 37° C. Controls were pre-incubated with DMSO at the same concentration in which it was found in the compound solutions. 10^5 sporozoites were added to each well and in the case of P. falciparum, incubated for 1.5 hours and scored for invasion whereas in the case of P. yoelii, incubated for 44 hours and scored for exoerythrocytic stages.

Plasmodium yoelii [3] = experiment: Sporozoite infection assay, P. yoelii in Hepa1-6 cells; format: cell-based
Plasmodium falciparum = experiment: Sporozoite invasion assay, P. falciparum in HepG2-CD81 cells; format: cell-based; conditions: HepG2-CD81, Plasmodium falciparum, 400 uM compound
Experimental: as §1, §2, §3

Plasmodium berghei = experiment: Sporozoite infection assay, P. berghei in Hepa1-6 cells; format: cell-based

| SMILES | Inhibition of JS-81 Binding (%) ([1]; 50 μM ligand, Raji cells) | Inhibition of JS-81 Binding (%) ([1]; 100 μM ligand, Raji cells) | Inhibition of JS-81 Binding (%) ([1]; 400 μM ligand, Raji cells) | Binding (change in response units) (CD81-LEL; SPR) [response units] | Dissociation 1 (change in response units) (CD81-LEL; SPR) [response units] | Dissociation 2 (change in response units) (CD81-LEL; SPR) [response units] | other results |
| --- | --- | --- | --- | --- | --- | --- | --- |
| CC(C)(C)c1ccc(NS(=O)(=O)c2ccc(N)cc2)cc1 [Ligand 7436] | 0 | 12 | 11 |  |  |  |  |
| c1cncc(C2CCCC[NH2+]2)c1 (stereo in doubt) [Ligand 87504, 3-[(2S)-piperidin-2-yl]pyridine] |  |  |  | 72 | 57.9 | 42.6 | inhibition at 50 µM ([1]; Raji): 0%; inhibition at 100 µM ([1]; Raji): 6%; inhibition at 400 µM ([1]; Raji): 20%; binding-dissociation behavior (in words) (CD81-LEL; SPR): best binding and dissociation; also recorded: most desirable binding-dissociation behavior; also recorded: best binding-dissociation behavior |
| NC(=O)NC(=O)c1nccnc1C(=O)O [Ligand 117922] | 0 | 12 | 26 |  |  |  |  |
| Cc1cc(C)c(N)c(C(=O)O)c1 [Ligand 90444, 2-amino-3,5-dimethylbenzoate] |  |  |  | −1.7 | 13.1 | 5.6 | Percent Infection (Plasmodium yoelii [2]; HepG2-CD81, Plasmodium yoelii, 400 uM compound): 44.3%; effect on infection (in words) (Plasmodium yoelii [2]; P. yoelii, HepG2-CD81): inhibit; also recorded: inhibitory effect; Percent Infection (Plasmodium yoelii [3]; Hepa1-6 Cells, Plasmodium yoelii): 222%; effect on infection (in words) (Plasmodium yoelii [3]; P. yoelii, Hepa1-6 cells): didn't inhibit; Percent Infection (Plasmodium falciparum): 98.7%; inhibition at 50 µM ([1]; 50 μM ligand, Raji cells): 0%; inhibition at 100 µM ([1]; 100 μM ligand, Raji cells): 0%; inhibition at 400 µM ([1]; 400 μM ligand, Raji cells): 24%; Percent Infection (Plasmodium berghei; Hepa1-6 Cells, Plasmodium berghei): 95.6%; effect on infection (in words) (Plasmodium berghei; P. berghei, Hepa1-6 cells): didn't inhibit |
| CSc1ccc2c(c1)C(N1CCN(C)CC1)Cc1ccccc1S2 (stereo not shown) [Ligand 281816] |  |  |  |  |  |  | inhibition of anti-CD81 binding (in words) ([1]; 100 uM and 400 uM): inhibit anti-CD81 binding to CD81-LEL in a dose dependent manner; binding to CD81 by SPR (in words) (CD81-LEL): bind to CD81-LEL |
| CNC1(C(N)=O)CCNCC1 [Ligand 75846] | 0 | 0 | 52 |  |  |  |  |

Continued, in another order:

| Inhibition of JS-81 Binding (%) ([1]; 50 μM ligand, Raji cells) | Inhibition of JS-81 Binding (%) ([1]; 100 μM ligand, Raji cells) | Inhibition of JS-81 Binding (%) ([1]; 400 μM ligand, Raji cells) | Binding (change in response units) (CD81-LEL; SPR) [response units] | Dissociation 1 (change in response units) (CD81-LEL; SPR) [response units] | Dissociation 2 (change in response units) (CD81-LEL; SPR) [response units] | SMILES | other results |
| --- | --- | --- | --- | --- | --- | --- | --- |
| 0 | 6 | 26 |  |  |  | NS(=O)(=O)c1ccc(N=Nc2c(O)c(C(=O)O)cc3ccccc23)cc1 [Ligand 134137] |  |
|  |  |  | 38.6 | 26.8 | 21.8 | O=C(O)c1cc2cc(OCc3ccccc3)ccc2[nH]1 [Ligand 30930, 5-phenylmethoxy-1H-indole-2-carboxylic acid] | inhibition at 50 µM ([1]; 50 μM ligand, Raji cells): 0%; inhibition at 100 µM ([1]; 100 μM ligand, Raji cells): 0%; inhibition at 400 µM ([1]; 400 μM ligand, Raji cells): 14% |
| 0 | 54 | 12 |  |  |  | O=C(O)/C=C/C(=O)Nc1cccc2cccnc12 [Ligand 144958] |  |
